Experimental findings from patent US6498150B2, “Low molecular weight cell, bone marrow and immune stimulants” (priority 1995, dated 2002) are described below.

One experiment deals with CD34+ cells. As to the kind of experiment: Blood cell stimulation: CD34+ progenitor suspension culture, lineage marker ELISA. Type of experiment: cell-based, human. To be noted: for neutrophils, Percent difference (relative to control): CD15; for red blood cells, Percent difference (relative to control): glycophorin A. (ELISA stands for enzyme-linked immunosorbent assay.)
The test system of a further experiment is anti-Pn14 antibodies. Also on record: species or system BALB/c female mice. To be noted: mouse, in vivo.
For experiment [1], the system named is delayed type hypersensitivity (DTH). Type of experiment: in vivo, mice.
Experiment [2] relates to CHO cells containing a cloned gene for tissue plasminogen activator (tPA). As to the kind of experiment: Stimulation of tPA production from CHO cells (IMUBIND total tPA ELISA). To be noted: for Culture Cell Density / Supernatant Concentration (tPA) / Supernatant Concentration relative to control / tPA per cell / tPA per cell relative to control / ELISA Optical Density: 1 pg/ml; for Culture Cell Density: cell numbers per milliliter, trypan-blue, hemacytometer; for Supernatant Concentration (tPA): from standard curve; for ELISA Optical Density: supernatant at end of log phase. Type of experiment: cell-based.

Experiment [3] concerns Hybridoma cells (ATCC #CRL-8014, OKT-8). Kind of experiment: Production of monoclonal antibodies from hybridomas (sandwich ELISA). Type of experiment: cell-based. The settings on record: 200 pg/ml.
The mark [4] stands for this setting: Study 1: 1 ng/ml compound, 2000 cells per well, 10 days, CD14.
Where [5] appears, read: Study 1: 1 ng/ml compound, 2000 cells per well, 10 days.
[6] abbreviates: Study 2: 1 ug/ml, 1700 cells per well.

Where “and” joins values, the source holds several entries; their conditions need not be identical. Equal entries are not always repeated. Where two headings read alike, the source gives them in different places. Marks after values point to notes of the source that are not given here.

Regarding `O=C(CCNC(=O)OCc1ccccc1)NCCOP(=O)(O)O` [Taurox-BOP, N-carboxybenzoxy-β-alanyl-ethanolamine phosphate], the “monocytes, Percent difference (relative to control)” value with CD34+ cells (setting [4]) came out at 18%. Besides, in the experiment with CD34+ cells (setting [5]), the “neutrophils, Percent difference (relative to control)” value is 21% and the “red blood cells, Percent difference (relative to control)” value turned out to be 0%. In the experiment with CD34+ cells (setting [6]), the “CD34 cells, Percent difference (relative to control)” value stood at 33%; the “RBC, Percent difference (relative to control)” value was 55%; the “monocytes, Percent difference (relative to control)” value stood at 9%. Also, in the experiment on anti-Pn14 antibodies, the “Mean Change in O.D. from pretest, Day 4 after injection with antigen” value turned out to be 0 and the “Mean Change in O.D. from pretest, Day 14 after injection with antigen” value worked out at 366. In the experiment on anti-Pn14 antibodies (ip), the “Mean Change in O.D. from pretest, Day 14 after injection with antigen” value was 877 and 515.
`NCCC(=O)NCCS(=O)(=O)O` [Taurox-S, β-alanyl-taurine]: the “monocytes, Percent difference (relative to control)” value in the experiment with CD34+ cells (setting [4]) was 47%. In addition, in the experiment on CD34+ cells (setting [5]), the “neutrophils, Percent difference (relative to control)” value amounted to 55% and the “red blood cells, Percent difference (relative to control)” value came out at 50%. For the same compound, in the experiment with anti-Pn14 antibodies, the “Mean Change in O.D. from pre-boost, 10 days after boost with UNCONJUGATED polysaccharide” value (from here on “Mean Change in O.D. from pre-boost”) is reported as 204; the “Mean Change in O.D. from pretest, Day 4 after injection with antigen” value turned out to be 2.9; the “Mean Change in O.D. from pretest, Day 14 after injection with antigen” value is listed as 697. Further, the “Mean Change in O.D. from pretest, Day 14 after injection with antigen” value in the experiment with anti-Pn14 antibodies (ip) was 681 and 671.
Turning to `O=C(CCNC(=O)OCc1ccccc1)NCCS(=O)(=O)O` [Taurox-SB, N-carboxybenzoxy-β-alanyl-taurine], the “moderate responders compared with saline injected group” value in experiment [1] (24 hrs) was “more moderate responders than the saline injected group”. Also, in experiment [1] (mouse, in vivo), the “Percent of Animals with Major DTH at 24 hrs” value is 50* Percent, the “Percent of Animals with Major DTH at 48 hrs.” value is given as 50%, the “Percent of Animals with Major DTH at either 24 or 48 hrs.” value is listed as 60% and the “Percent of Animals with Moderate DTH at 24 hrs” value turned out to be 70%. Moreover, in experiment [1] (mouse, in vivo), the “moderate response rate at 24 hrs” value is “eight of ten”, the “total treated animals with major immune response at 24 hours” value was determined as 14 animals and the “treated animals with major response at either 24 or 48 hours post challenge” value was 21 animals. In experiment [1] (mouse, in vivo, iv), the “Percent of Animals with Major DTH at 24 hrs” value was 20% and 10%; the “Percent of Animals with Major DTH at 48 hrs.” value was 20% and 10%; the “Percent of Animals with Moderate DTH at 24 hrs” value is 70% and 60% and 50% and 80* Percent and 40%. Besides, in experiment [2] (listed as #1), the “Culture Cell Density” value was 4.0 × 10^5, the “Supernatant Concentration (tPA)” value is recorded as 1,492.8 nanograms/ml, the “Supernatant Concentration relative to control” value is “[3.5 × control]” and the tPA per cell is reported as 3.73 Picograrns. Further, in experiment [2] (listed as #1), the “tPA per cell relative to control” value was “[1.9 × control]” and the “ELISA Optical Density” value came to 0.332. For the same compound, in experiment [2] (listed as #2), the “Culture Cell Density” value is 4.8 × 10^5, the “Supernatant Concentration (tPA)” value was 1,389.4 nanograms/ml, the “Supernatant Concentration relative to control” value is “[3.3 × control]” and the tPA per cell is 2.89 Picograrns. In addition, the “ELISA Optical Density” value in experiment [2] (listed as #2) is on record as 0.317. For the same compound, in experiment [2] (listed as #3), the “Culture Cell Density” value is listed as 5.2 × 10^5, the “Supernatant Concentration (tPA)” value is 2,113.0 nanograms/ml, the “Supernatant Concentration relative to control” value is “[5.0 × control]” and the tPA per cell came out at 4.06 Picograrns. In addition, in experiment [2] (listed as #3), the “tPA per cell relative to control” value was “[2.1 × control]” and the “ELISA Optical Density” value came out at 0.422. Besides, the “alteration of per-cell production of tPA” value in experiment [2] (Table 2) was “about 2 fold”. In addition, the “monocytes, Percent difference (relative to control)” value with CD34+ cells (setting [4]) stood at 15%. Further, in the experiment on CD34+ cells (setting [5]), the “neutrophils, Percent difference (relative to control)” value is given as 0% and the “red blood cells, Percent difference (relative to control)” value came out at 0%. Moreover, in the experiment on anti-Pn14 antibodies, the “Mean Change in O.D. from pre-boost” value is on record as 139; the “Mean Change in O.D. from pretest, Day 4 after injection with antigen” value was 1.1; the “Mean Change in O.D. from pretest, Day 14 after injection with antigen” value worked out at 697. In the experiment on anti-Pn14 antibodies (ip), the “Mean Change in O.D. from pretest, Day 4 after injection with antigen” value was 6.2 and 3.9; the “Mean Change in O.D. from pretest, Day 14 after injection with antigen” value is 705 and 483. For the same compound, in experiment [3], the “Increase of 1 gG, μg/ml over 0-control” value is given as 316% and the “Increase of IgG, pg/cell over 0-control” value amounted to 93%. The “IgG, pg/cell” value in experiment [3] (protein-free media) stood at 80.6 pg/cell. The “1 gG” value in experiment [3] (protein-free media, Mab in culture aliquots) worked out at 50 µg/mL.
On to “N-carboxybenzoxy-β-alanyl aminoethylphosphonic acid [Taurox-BP]”, for which the “monocytes, Percent difference (relative to control)” value with CD34+ cells (setting [4]) is recorded as 18%. Also, in the experiment on CD34+ cells (setting [5]), the “neutrophils, Percent difference (relative to control)” value was 14% and the “red blood cells, Percent difference (relative to control)” value stood at 1%. Further, in the experiment on CD34+ cells (setting [6]), the “CD34 cells, Percent difference (relative to control)” value is given as 0%; the “RBC, Percent difference (relative to control)” value amounted to 4%; the “monocytes, Percent difference (relative to control)” value came out at 2%. Besides, in the experiment on anti-Pn14 antibodies, the “Mean Change in O.D. from pre-boost” value came out at 187; the “Mean Change in O.D. from pretest, Day 4 after injection with antigen” value was determined as 3.3; the “Mean Change in O.D. from pretest, Day 14 after injection with antigen” value turned out to be 924.
